The subject of data set [1] is MCF-7 cells. Kind of data set: Cell growth (CCK-8). The class given is cell-based, human.
Method: (§3) Cell growth was analyzed using 2-(2-methoxy-4-nitrophenyl)-3-(4-nitroph enyl)-5-(2,4-disulfophenyl)-2H-tetrazolium, monosodium salt, and the Cell Counting Kit-8 (CCK-8, Sigma). […] After culturing for another 48 hr, cell growth was analyzed by CCK-8 and the optical density was detected at 450 nm. The growth ratio was normalized to the cells without treatment.
Data set [2] relates to MDA-MB-231 cells. The data set is described as follows: Cell growth (CCK-8). The class given is cell-based, human.
Method: as §3
In data set [3] the test system is MCF-7 cells. The data set is described as follows: Transwell invasion assay. It is filed as cell-based, human. The settings on record: MCF-7, 100 μmol/l, 48 hr post-transfection, vs control or TAT-NLS-BLBD-6m (Fig. 3c). The method, then:
(§1) Transwell chambers of […] pore size were used in the in vitro invasion assay. MCF-7 and MDA-MB-231 cells were seeded onto the upper chamber and incubated with TAT-NLS-BLBD-6 and TAT-NLS-BLBD-6m peptide and 10% fetal bovine serum medium were added to the bottom chamber well. After 24 hr, cells invading the lower chamber were fixed with 4% paraformaldehyde solution and stained with 0.1% crystal violet for 30 min at 37 °C. Three random field images were obtained by microscopy, and the number of invading cells were counted. For the migration assay, MCF-7 and MDA-MB-231 cells were seeded onto 6-well plates. After 24 hr, an artificial wound was created using a 10-μl pipette tip, and the wound was incubated with TAT-NLS-BLBD-6 or TAT-NLS-BLBD-6m for 24 hr at 37 °C. The images of wound healing were captured by microscopy, and the wound healing distances were calculated by Image J (U.S. National Institutes of Health, Bethesda, MD, USA). For the colony formation assay, MCF-7 and MDA-MB-231 cells were seeded into 10-cm dishes with the medium containing TAT-NLS-BLBD-6 or TAT-NLS-BLBD-6m. After 2 weeks, cells were fixed with 4% paraformaldehyde solution and stained with 0.1% crystal violet for 30 min at 37 °C.

Data set [4] concerns MDA-MB-231 cells. Kind of data set: Transwell invasion assay. It is filed as cell-based, human. The settings on record: MDA-MB-231, 100 μmol/l, 48 hr post-transfection, vs control or TAT-NLS-BLBD-6m (Fig. 3c). As for the experimental part:
as §1

For data set [5], the system named is MCF-7 cells. The data set is described as follows: Wound-healing migration assay. The settings on record: MCF-7, 100 μmol/l, 48 hr post-transfection, vs control or TAT-NLS-BLBD-6m (Fig. 3d). The class given is cell-based, human. As for the experimental part: as §1
For data set [6], the system named is MDA-MB-231 cells. The data set is described as follows: Wound-healing migration assay. It is filed as cell-based, human. The following applies: MDA-MB-231, 100 μmol/l, 48 hr post-transfection, vs control or TAT-NLS-BLBD-6m (Fig. 3d). As for the experimental part: as §1
Data set [7] relates to MCF-7-YFP cells xenograft. Kind of data set: Xenograft tumor growth in nude mice. It is filed as in vivo, mouse. The following applies: MCF-7 xenograft, 1 and 10 mg/kg intratumoral once every 2 days for 35 days, n = 5 per group, vs control peptide. The source says:
(§2) All animal experiments were approved by the Kaohsiung Medical University Institutional Animal Care and Use Committee (IACUC Approval No: 101156) and we accordance with the approved guidelines. Female nude mice (4–5 weeks old) were obtained from the National Laboratory Animal Center (Taipei, Taiwan). Xenograft tumor models were established by subcutaneous injection of 1 × 10^7 MCF-7-YFP or MDA-MB-231-GFP cells into the right flanks of mice. Mice with palpable tumors were randomly divided into three groups with five animals in each group. The mice were treated with control peptide, […], 1 and 10 mg/kg TAT-NLS-BLBD-6 by intratumoral injection once every 2 days for 35 days. The fluorescence density was analyzed by an In Vivo Imaging System (IVIS) (Berthold Technologies, Bad Wildbad, Germany), and the tumor volumes (V) of nude mice were calculated by: V = length × diameter^2 × 0.5. For zebrafish xenotransplantation, zebrafishes (Danio rerio) were maintained at 28 °C in an air incubator, and 1 × 10^4 MCF-7-GFP or MDA-MB-231-GFP cells combined with TAT-NLS-BLBD-6 or control peptide were injected into the zebrafish embryos according to the previously described protocol. The fluorescence density was measured 24 and 28 hr after injection using an epifluorescence microscope.

The subject of data set [8] is MDA-MB-231-GFP cells xenograft. The data set is described as follows: Xenograft tumor growth in nude mice. The settings on record: MDA-MB-231 xenograft, 1 and 10 mg/kg intratumoral once every 2 days for 35 days, n = 5 per group, vs control peptide. The class given is in vivo, mouse.
Source text: as §2

A short description of data set [9]: Body weight and toxicity in xenograft models. The class given is in vivo, mouse.
Source text: as §2

The test system of data set [10] is MCF-7-GFP cells in zebrafish embryos. Kind of data set: Zebrafish xenotransplantation, fluorescence density. The class given is in vivo, Danio rerio. The following applies: MCF-7-GFP co-injected with 100 μmol/l peptide into yolk sacs, between 24 hr and 48 hr, n = 20 per group, vs TAT-NLS-BLBD-6m.
Source text: as §2, with “The fluorescence density was measured 24 and 28 hr after injection using an epifluorescence microscope.” left out

Data set [11] relates to β-catenin/TCF4/LEF-1 downstream genes. The data set is described as follows: Q-PCR of 27 candidate genes in MDA-MB-231. The settings on record: MDA-MB-231, 100 μmol/l, 48 hr post-transfection, relative to TAT-NLS-BLBD-6m (Fig. 6e). The class given is cell-based, human. The method, then:
Total RNA was isolated by Trizol reagent (Invitrogen, Carlsbad, CA, USA) and reverse transcribed to produce cDNA using the Deoxy + HiSpec reverse transcriptase kit (Yeastern, Taipei, Taiwan) according to the manufacturer instructions. Q-PCR was analyzed with SYBR Green Master Mix (Applied Biosystems, Stockholm, Sweden) and subjected to quantitation in an […]. The primers used for PCR are given in Supplementary Table S5 online. The Q-PCR data were normalized to 18S cDNA levels.

As for H-TAT-NLS-ATDEMIPF-NH2 [TAT-NLS-BLBD-6], the cell growth result in the data set on MCF-7 cells [1] (75 μmol/l peptide, MCF-7, CCK-8, means of three experiments (Fig. 1b)) is given as “inhibited the growth”; with MDA-MB-231 cells [2] (75 μmol/l peptide, MDA-MB-231, CCK-8, means of three experiments (Fig. 1b)), “inhibited the growth”. Moreover, the “time and dose dependence of cell growth” value with MCF-7 cells [1] (MCF-7, indicated concentrations, 24, 48 and 72 hr (Fig. 1c,d)) is “inhibited breast cancer cell growth in a time- and dose-dependent manner”; in the data set on MDA-MB-231 cells [2] (MDA-MB-231, indicated concentrations, 24, 48 and 72 hr (Fig. 1c,d)), “inhibited breast cancer cell growth in a time- and dose-dependent manner”. The invasion entry in the data set with MCF-7 cells [3] and in the data set with MDA-MB-231 cells [4] was “inhibited the mobility” throughout. Further, the “migration (wound healing)” value in the data set on MCF-7 cells [5] and with MDA-MB-231 cells [6] was “inhibited the mobility” throughout. In addition, the tumor growth result in [7] and in data set [8] was “inhibited tumor growth” each time. In [9] (nude mice, 1 and 10 mg/kg intratumoral once every 2 days for 35 days, vs control peptide), the body weight result is listed as “without having any effect on body weight”. In [9] (nude mouse and zebrafish xenotransplantation models), the signs of toxicity entry is reported as “no signs of toxicity”. Further, the “fluorescence density of transplanted tumor cells” value in [10] is “gradually reduced”. In addition, in data set [11], the “gene expression of the 27 candidate genes” value is on record as “decreased”. The “cell growth of embryonic kidney cells” value in the data set with HEK293 cells was “did not inhibit the growth”.

(Values after PMC4707489, “A novel cell-penetrating peptide suppresses breast tumorigenesis by inhibiting β-catenin/LEF-1 signaling” (Scientific Reports, 2016).)
